Converted amounts (≈) assume the structure as drawn. The source made the active and inactive calls. No cut-off for these calls is given here.
Legend:
HeLa = assay: Dark toxicity against human HeLa cells assessed as reduction in cell viability incubated for 16 hrs by CCK-8 assay; assay type: functional, cell-based
[1] = Phototoxicity against human HeLa cells assessed as reduction in cell viability incubated for 16 hrs followed by irradiated with 54 J/cm^2 of light dose and further incubated for 24 hrs by CCK-8 assay; assay type: toxicity, cell-based; conditions: light or radiation study
[2] = Lipophilicity, logP of compound; assay type: physicochemical; conditions: octanol/water
[3] = Phototoxicity against mouse B16-F10 cells assessed as reduction in cell viability incubated for 16 hrs followed by irradiated with 54 J/cm^2 of light dose and further incubated for 24 hrs by CCK-8 assay; assay type: toxicity, cell-based; conditions: B16-F10, light or radiation study
A-375 = assay: Dark toxicity against human A-375 cells assessed as reduction in cell viability incubated for 16 hrs by CCK-8 assay; assay type: functional, cell-based; conditions: A-375, 16 h
[4] = Phototoxicity against human A-375 cells assessed as reduction in cell viability incubated for 16 hrs followed by irradiated with 54 J/cm^2 of light dose and further incubated for 24 hrs by CCK-8 assay; assay type: toxicity, cell-based; conditions: A-375, light or radiation study
B16-F10 [5] = assay: Dark toxicity against mouse B16-F10 cells assessed as reduction in cell viability incubated for 16 hrs by CCK-8 assay; assay type: cell-based; conditions: B16-F10, 16 h
[6] = Aqueous solubility in PBS; assay type: physicochemical; conditions: buffer
[7] = Toxicity in C57BL/6 mouse harboring mouse B16-F10 cells assessed as change in body weight at 2 mg/kg, iv irradiated with 60 J/cm^2 laser light measured upto 14 days; assay type: organism-based; conditions: in vivo, 336 h, time <=14 day
B16-F10 [8] = assay: Antitumor activity against mouse B16-F10 cells implanted in C57BL/6 mouse assessed as inhibition of tumor growth at 2 mg/kg, iv irradiated with 60 J/cm^2 laser light by IVIS imaging analysis measured upto 48 hrs; assay type: functional, organism-based; conditions: time hrs <=48
B16-F10 [9] = assay: Antitumor activity against mouse B16-F10 cells implanted in C57BL/6 mouse assessed as tumor destruction at 2 mg/kg, iv irradiated with 60 J/cm^2 laser light measured after 14 days by hematoxylin and eosin based microscopic analysis; assay type: functional, organism-based; conditions: time 14.0 day
B16-F10 [10] = assay: Antitumor activity against mouse B16-F10 cells implanted in C57BL/6 mouse assessed as tumor regrowth at 2 mg/kg, iv upto after 6 days irradiated with 60 J/cm^2 laser light by IVIS imaging analysis; assay type: functional, organism-based; conditions: time 6.0 day

SMILES | IC50 (HeLa) | IC50 [1] | logP [2] | IC50 [3] | IC50 (A-375) | IC50 [4] | IC50 (B16-F10 [5]) | solubility [6] | Activity [7] | Activity (B16-F10 [8]) | Activity (B16-F10 [9]) | Activity (B16-F10 [10])
COc1ccc2c(c1)CCc1c(-c3ccccc3)c3n(c1-2)[B-](F)(F)[N+]1=C(c2ccc(OCC(=O)N[C@@H](CC(=O)O)C(=O)O)cc2)C(I)=C(c2ccccc2)C1=N3 | > 250000 nM | 55 nM | -0.73 | 126 nM | > 250000 nM | 148 nM | > 250000 nM | 115 µM (≈ 100 µg/mL) |  |  |  | 
COc1ccc(C2=[N+]3C(=Nc4c(-c5ccccc5)c5c(n4[B-]3(F)F)-c3ccc(OC)cc3CC5)C(c3ccccc3)=C2I)cc1 |  |  | > 3 |  |  |  |  | < 1 µM |  |  |  | 
COc1ccc(C2=[N+]3C(=Nc4c(-c5ccccc5)c5c(n4[B-]3(F)F)-c3ccc(OCC(=O)N[C@@H](CCC(=O)O)C(=O)O)cc3CC5)C(c3ccccc3)=C2I)cc1 | > 250000 nM | 78 nM | -0.74 | 159 nM | > 250000 nM | 166 nM | > 250000 nM | 158 µM (≈ 139 µg/mL) |  |  |  | 
COc1ccc(C2=[N+]3C(=Nc4c(-c5ccccc5)c5c(n4[B-]3(F)F)-c3ccc(OCC(=O)O)cc3CC5)C(c3ccccc3)=C2I)cc1 | > 50000 nM | 56 nM | 0.94 | 104 nM | > 50000 nM | 142 nM | > 50000 nM | 28.4 µM (≈ 21.4 µg/mL) |  |  |  | 
C=Cc1c(C)c2cc3nc(c(CC(=O)O)c4[nH]c(cc5nc(cc1[nH]2)C(C)=C5CC)c(C)c4C(=O)O)[C@@H](CCC(=O)O)[C@@H]3C [CHLORIN E6] |  |  |  |  |  |  |  |  | Non-Toxic | inactive |  | 
COc1ccc2c(c1)CCc1c(-c3ccccc3)c3n(c1-2)[B-](F)(F)[N+]1=C(c2ccc(OCC(=O)O)cc2)C(I)=C(c2ccccc2)C1=N3 | > 50000 nM | 274 nM | 0.92 | 346 nM | > 50000 nM | 320 nM | > 50000 nM | 21.8 µM (≈ 16.4 µg/mL) |  |  |  | 
COc1ccc2c(c1)CCc1c(-c3ccccc3)c3n(c1-2)[B-](F)(F)[N+]1=C(c2ccc(OCC(=O)N[C@@H](CCC(=O)O)C(=O)O)cc2)C(I)=C(c2ccccc2)C1=N3 | > 250000 nM | 119 nM | -0.71 | 212 nM | > 250000 nM | 284 nM | > 250000 nM | 110 µM (≈ 96.7 µg/mL) |  |  |  | 
COc1ccc(C2=[N+]3C(=Nc4c(-c5ccccc5)cc(-c5ccc(OC)cc5)n4[B-]3(F)F)C(c3ccccc3)=C2I)cc1 | > 50000 nM | 76 nM | > 3 | 276 nM | > 50000 nM | 254 nM | > 50000 nM | < 1 µM | Non-Toxic | Active | Active | Active

Source: ChEMBL document CHEMBL5038667, “Discovery of an Amino Acid-Modified Near-Infrared Aza-BODIPY Photosensitizer as an Immune Initiator for Potent Photodynamic Therapy in Melanoma” (J Med Chem, 2022)
